One assay has as its system mAb 7D8. The assay is described as follows: ELISA binding of 7D8 to peptopes dried on microplates. The settings on record: both assays. As for the experimental part: Peptides (p75-78 and control reagents; peptide 39 [CGGHEDT] (SEQ ID NO: 54), peptide 41 [CGGHEDTMADQE] (SEQ ID NO: 55) and peptide p5 (SEQ ID NO: 1), were prepared at 1 μg/ml in PBS and 50 μl was added to each well of 1 96-well microplate (Costar EIA/RIA high binding). The peptides were dried onto the well at 37° C. overnight. Sample wells were blocked for 1 h by addition of 200 μL of 1% BSA in PBS. Primary antibodies (7D8 or biotinylated 7D8) and secondary antibodies (biotinylated goat anti mouse) were added in 100 μL of a diluent of 1% BSA and 0.05% tween 20 in PBS. The 7D8 primary antibody was tested with a 1:2 dilution series beginning at 50 nM. A 1/3000 dilution of the secondary biotinylated goat anti-mouse IgG antibody (Sigma) was added for 1 h and the microplate washed. When the biotinylated 7D8 mAb was used the secondary antibody step was omitted. Binding was visualized by addition of a 1/1000 dilution of europium/streptavidin (Perkin Elmer) for 1 h and developed with enhancement solution (Perkin Elmer) before quantifying the signal using a time-resolved fluorescence plate reader (Wallac).

In another assay the test system is human Den ALλ amyloid. The assay is described as follows: Immunohistochemistry of biotinyl-7D8 on formalin-fixed tissue sections. The format is binding. The settings on record: thyroid, label = pre-treatment peptide, or 7D8 alone. The procedure:
(§1) The binding of biotinylated 7D8 mAb with autopsy-derived, formalin-fixed, paraffin-embedded tissue sections containing, ATTR, ALκ or ALλ was assessed immunohistochemically. Consecutive tissue sections were stained with: Congo red; biotinylated 7D8 alone; 7D8 with the control peptide p5; or, 7D8 mAb with peptope p75 pretreatment. Briefly, six μm-thick tissue sections were subjected to antigen retrieval by incubation in CitraPlus solution (BioGenex, San Ramon, Calif.) for 30 min at 90° C. Unlabeled peptope p75 was added to the tissue at ˜3 μg/mL and incubated overnight at 4° C. Unbound reagent was removed by washing in PBST for 30 min. Tissues sections (with or without peptope pretreatment) were immunostained by addition of 3 μg/mL biotinylated 7D8 mAb. Slides were developed by addition of streptavidin-HRP (Vectastain Elite ABC kit, Vector Labs) followed by 3,3′-diaminobezidene (Vector Labs) and examined using a Leica DM500 microscope.

The test system of a further assay is human ATTR amyloid. The assay is described as above. The class given is binding. The settings on record: label = pre-treatment peptide, or 7D8 alone. The procedure: as §1
For another assay, the system named is human Tal ALκ amyloid. The description is as above. The format is binding. The conditions noted are these: kidney, label = pre-treatment peptide, or 7D8 alone. The procedure:
as §1

“KAQKAQAKQAKQAQKAQKAQAKQAKQ (KAQKAQAKQAKQAQKAQKAQAKQAKQ; Peptide p5)”: the “binding of 7D8 and biotinyl-7D8” value with mAb 7D8 was “no binding”. Also, the “immunohistochemical staining with biotinyl-7D8” value with human Den ALλ amyloid was “inhibited this effect”; in the assay with human ATTR amyloid (Gre ATTR, esophagus) it was “decreased”; with human ATTR amyloid (Gre ATTR, heart) it was “partially inhibited”; with human ATTR amyloid (Ken ATTR, heart) it was “background 7D8 staining was diminished”; with human ATTR amyloid (Sno ATTR, heart), “background 7D8 staining was diminished”; in the assay with human Tal ALκ amyloid, “inhibited this effect”.

(Values after US10046050B2, “Targeting immunotherapy for amyloidosis” (UNIVERSITY OF TENNESSEE RESEARCH FOUNDATION, priority 2014, dated 2018).)
